In PMC4862498, “PI4 Kinase Is a Prophylactic but Not Radical Curative Target in Plasmodium vivax-Type Malaria Parasites” (Antimicrobial Agents and Chemotherapy, 2016):
Where “and” joins values, the source holds several entries; their conditions need not be identical. Equal values may be shown once.

Key:
[1] = system: P. cynomolgi developing EEFs (liver schizonts) in primary rhesus hepatocytes; experiment: In vitro liver-stage drug assay with P. cynomolgi, large forms (developing EEFs / liver schizonts); format: cell-based, Plasmodium cynomolgi; conditions: compound exposure 6 days, mean of several (9) independent assays, read-out: IC50 against developing EEFs / liver schizonts (large forms)
Description: In vitro infections of primary rhesus hepatocytes with P. cynomolgi sporozoites were performed according to methods described previously by Zeeman et al. ([10]). At day 6 postinfection (p.i.), the assay mixtures were fixed and stained with anti-P. cynomolgi Hsp70 rabbit antiserum and a fluorescein isothiocyanate (FITC)-labeled secondary antibody (goat anti-rabbit). Plates were analyzed with the Operetta high-content imaging system, differentially counting hypnozoites and developing extraerythrocytic forms (EEFs), based on parasite size ([10]).
In vitro activity against P. cynomolgi liver stages was determined for both compounds. The numbers of small (hypnozoites) and large (developing EEFs) parasites were determined by using Operetta and image analysis of primary rhesus hepatocyte cultures infected with P. cynomolgi sporozoites and exposed to the compound for 6 days ([10]). […] IC50s were determined by using the least-squares nonlinear regression method (Prism) for small and large parasites. Data from several independent experiments were used to calculate the IC50s for the two compounds.

[2] = Clinical chemistry, hematology, weight and clinical observation of treated monkeys; format: in vivo, rhesus macaques (Macaca mulatta); conditions: rhesus monkey, in vivo
Description: Monkeys were treated according to the schedule shown in Table 1 (stratification of treatment groups is given in the supplemental material). During treatment, monkeys were weighed daily and received the compound via gavage, followed by gastric feeding (weight change during treatment is shown in Table S6 in the supplemental material). Monkeys in the prophylaxis groups (groups 691-proph and 599-proph) were treated ∼20 min after the i.v. sporozoite injection. The other monkeys were treated when all the monkeys in the experiment (except those in the prophylaxis group) were blood-stage patent (at day 11 p.i.). To kill the blood-stage parasites, all monkeys received a 5-day treatment of 7.5 mg/kg of body weight of chloroquine (CQ) (intramuscular [i.m.] injection), during compound dosing. KDU691 was formulated in 0.5% methylcellulose and 0.5% Tween 80 in water. LMV599 was formulated as a solid dispersion in a solution containing 5.6% (wt/wt) Tween 80–44.4% hydroxypropyl methylcellulose (HPMC) E3–38.9% Soluplus–11.1% vitamin E D-alphatocopheryl polyethylene glycol 1000 succinate (TPGS).
Blood samples were collected for clinical evaluation and pharmacokinetic (PK) analysis (see Table S2 in the supplemental material).
When the first relapse was observed, monkeys of the KDU691 experiment were radically cured with primaquine (PQ)/CQ (oral administration of 1.8 mg/kg PQ for 14 days together with i.m. administration of 7.5 mg/kg CQ for the first five days of PQ treatment) to cure both blood stage and liver stage parasites, […]
The monkeys of the LMV599/PQ experiment were cured with a five day CQ treatment (7.5 mg/kg, i.m. administration) at the first relapse and were monitored until the second relapse after which they were cured with CQ (7.5 mg/kg, intramuscular (i.m.) for five days) plus PQ (1.8 mg/kg for 14 days).
Table S2: PK and clinical blood sampling schedule in monkeys.
Groups are named 691 for KDU691 and 599 for LMV599 treatment groups, followed by -C for control group (no compound), -proph for prophylactic treatment (treated immediately after infection), and -RC for radical cure treatment (treated when blood stage positive). […]
the face and chest areas were very yellow. Therefore the 691-RC group (treated from d11 to d15 pi) was monitored by daily clinical chemistry analysis during dosing to be compared with untreated 691-C. […]
sampling of the single dose prophylaxis group at day 0, 1, 7 and 100. The lack of aberrant clinical […]
as radical cure compound, during which also clinical sampling was performed daily. a: only clinical chemistry samples were taken. *: t = 24 sample was taken only on the 1st day of dosing.
Group name Clin. chem PK sampling PK time points
Hematology (h post dosing)
691-proph 1st and 5th day of dosing t = 0, 1, 4, 6 and 24*
691-RC Dailya 1st and 5th day of dosing t = 0, 1, 4, 6 and 24* […]
599-RC Daily 1st and 4th day of dosing t = 0, 1, 2, 4 and 24
Clinical chemistry and hematology
For the clinical analysis serum from 1 mL of clotted blood was analysed using the Cobas Integra 400 plus fully automated chemistry analyser. The following clinical parameters were determined: Alkaline phosphatase; Alanine Aminotransferase; Albumin: Aspartate aminotransfeasr; Bilirubin; Calcium; Cholesterol; Creatine kinase; Creatinine; C-reactive protein: Iron; Phosphate; Gamma-glutamyl transpeptidase; Glucose; Hemoglobin; Potassium; Lactate dehydrogenase; Sodium; Total protein; Urea Haematological parameters were determined from 1 mL EDTA-blood with a Sysmex XT-2000iV automated system. The following hematological parameters were determined: Basophilic granulocytes; Eosinophilic granulocytes; Erythrocytes; Hematocrit; Leucocytes; Leucocyte differentiation; Lymphocytes; Mean corpusculair hemoglobin; Mean corpusculair hemoglobin concentration; Mean corpusculair volume; Neutrophilic granulocytes; Red cell distribution width; Thrombocytes […]
Liver tissue samples were excised, dipped in PBS, gently blotted with absorbent paper, dried, weighed and stored at -20 °C until further analysis. […]

[3] = set-up: species or system mice and monkeys; conditions: in vivo
Description: Details of in vivo PK studies of KDU691 and LMV599 in CD-1 mice and monkeys can be found in the supplemental material.
Pharmacokinetic analysis.
Mean values of compound concentrations in plasma and liver were obtained from three animals at each time point and plotted against time to generate concentration-time profiles. Pharmacokinetic parameters were determined using WinNonlin Professional, version 5.0.1 (Pharsight, California, USA), by non-compartmental modeling using software model 200 for oral dosing. The oral bioavailability (F) was calculated as the ratio between the area under the curve from 0 to infinity (AUCinf) following oral administration and the AUCinf following intravenous administration corrected for dose (F = AUCp.o. * dosei.v. / AUCi.v. * dosep.o.).
PK-PD relationship analysis.
The compound concentration that inhibited 50% of P. cynomolgi growth (IC50) was used to calculate the threshold (TRE = 3*IC50) and the PK-PD indices. The Cmax/TRE was defined as the ratio of peak plasma concentration (Cmax) to the threshold (3*IC50), the AUC0-24/TRE was defined as the ratio of area under the curve from 0 to 24 hours (AUC0-24) to the threshold, and the percent time over threshold (%T>TRE) was defined as the percentage of the 24 hour period during which the compound concentration exceeded the […]
Table S3: Monkey stratification for the in vivo testing of KDU691. […]

With `CNC(=O)c1ccc(-c2cnc3cnc(C(=O)N(C)c4ccc(Cl)cc4)cn23)cc1` [KDU691] the IC50 [1] was 61 nM and 60 nM, the “weight loss, % of the initial weight” value [2] was 3.5% and the oral bioavailability [3] was 52-66%.
